Source: patent publication US20060154923A1, “N-phenyl-3-cyclopropylpyrazole-4-carbonitriles as ectoparasiticidal agents” (priority 2002, published 2006)
Where two headings read alike, the source gives them in different places.

What was measured:
Assay type in all cases: in vivo
[1] = system: Ctenocephatides felis, adult cat fleas; experiment: Contact activity against adult cat fleas, coated glass vial assay
Method: Evaluation of the Efficacy of Test Compounds Against Adult Cat Fleas
(§1) The contact activity of a test compound against Ctenocephatides felis, adult cat fleas, is evaluated in a coated, glass vial assay. In this evaluation, a solution of test compound in acetone is allowed to dry on the interior surface of a 20 mL vial. Ten unfed adult cat fleas are added to the treated vial and mortality is assessed periodically for up to 48 h. All treatments are replicated 2 times. The data are averaged.

[2] = system: newly emerged larvae of Lucilia sericata, blowfly; experiment: Efficacy against blowfly larvae, treated paper/serum bioassay; conditions: blowfly larvae; for mortality at 0.2 ppm / mortality at 2 ppm / mortality at 20 ppm: Lucilia sericata
Method: Evaluation of Efficacy of Test Compounds Against Blowfly Larvae
The efficacy of a test compound against newly emerged larvae of Lucilia sericata, blowfly, is evaluated using a treated paper/serum bioassay. In this evaluation, a solution of test compound in acetone is applied to a filter paper disc and the disc is allowed to dry. Bovine serum and about 20 newly emerged blowfly larvae are added to the treated paper disc and the mortality is assessed at 24 h and 48 h. The data are averaged.

[3] = system: Rhipacephalus sanguineus, adult ticks; experiment: Contact activity against adult ticks, coated glass vial assay
Method: Evaluation of the Efficacy of Test Compounds Against Adult Ticks
as §1, with “Rhipacephalus sanguineus,” for “Ctenocephatides felis,”, “ticks,” for “cat fleas,”, “coated” for “coated,”, “Five” for “Ten”, “ticks” for “cat fleas”

## CCCOC=Nc1c(C#N)c(C2(C)CC2(Cl)Cl)nn1-c1c(Cl)cc(C(F)(F)F)cc1Cl (racemic) [Example 39]
[1]; Conc. 2 ug/cm2, 4 h
  % Mortality 4 h: 0%
[1]; Conc. 2 ug/cm2, 24 h
  % Mortality 24 h: 70%
[2]; Conc. 0.2 ppm, 24 h
  % Mortality 24 h: 0%
[2]; Conc. 0.2 ppm, 48 h
  % Mortality 48 h: 0%
[2]; Conc. 2.0 ppm, 24 h
  % Mortality 24 h: 70%
[2]; Conc. 2.0 ppm, 48 h
  % Mortality 48 h: 70%
[2]; Conc. 20.0 ppm, 24 h
  % Mortality 24 h: 100%
[2]; Conc. 20.0 ppm, 48 h
  % Mortality 48 h: 100%

## CCOC=Nc1c(C#N)c(C2(C)CC2(Cl)Cl)nn1-c1c(Cl)cc(C(F)(F)F)cc1Cl (racemic) [Example 40]
[1]; Conc. 2 ug/cm2, 4 h
  % Mortality 4 h: 0%
[1]; Conc. 2 ug/cm2, 24 h
  % Mortality 24 h: 100%
[2]; Conc. 2.0 ppm, 24 h
  % Mortality 24 h: 0%
[2]; Conc. 2.0 ppm, 48 h
  % Mortality 48 h: 0%
[2]; Conc. 20.0 ppm, 24 h
  % Mortality 24 h: 100%
[2]; Conc. 20.0 ppm, 48 h
  % Mortality 48 h: 100%

## CC1(c2nn(-c3c(Cl)cc(C(F)(F)F)cc3Cl)c(Cl)c2C#N)CC1(Cl)Cl (stereo not shown) [Example 4, 5-Chloro-3-(2,2-dichloro-1-methylcyclopropyl)-1-[2,6-dichloro-4-(trifluoromethyl)phenyl]-1H-pyrazole-4-carbonitrile]
[1]; Conc. 0.002 ug/cm2, 4 h
  % Mortality 4 h: 20%
[1]; Conc. 0.002 ug/cm2, 24 h
  % Mortality 24 h: 100%
[1]; Conc. 0.2 ug/cm2, 4 h
  % Mortality 4 h: 60%
[1]; Conc. 0.2 ug/cm2, 24 h
  % Mortality 24 h: 100%
[1]; Conc. 2 ug/cm2, 4 h
  % Mortality 4 h: 100%
[1]; Conc. 2 ug/cm2, 24 h
  % Mortality 24 h: 100%
[3]; Conc. 0.78 ug/cm2, 4 h
  % Mortality 4 h: 60%
[3]; Conc. 0.78 ug/cm2, 24 h
  % Mortality 24 h: 100%
[3]; Conc. 7.80 ug/cm2, 4 h
  % Mortality 4 h: 60%
[3]; Conc. 7.80 ug/cm2, 24 h
  % Mortality 24 h: 100%
[2]; Conc. 0.2 ppm, 24 h, read-out: % Mortality 24 h
  mortality at 0.2 ppm: 100%
[2]; Conc. 0.2 ppm, 48 h, read-out: % Mortality 48 h
  mortality at 0.2 ppm: 100%
[2]; Conc. 2.0 ppm, 24 h, read-out: % Mortality 24 h
  mortality at 2 ppm: 100%
[2]; Conc. 2.0 ppm, 48 h, read-out: % Mortality 48 h
  mortality at 2 ppm: 100%
[2]; Conc. 20.0 ppm, 24 h, read-out: % Mortality 24 h
  mortality at 20 ppm: 100%
[2]; Conc. 20.0 ppm, 48 h, read-out: % Mortality 48 h
  mortality at 20 ppm: 100%

## CC1(c2nn(-c3c(Cl)cc(C(F)(F)F)cc3Cl)cc2C#N)CC1(Cl)Cl (stereo not shown) [Example 5]
[1]; Conc. 2 ug/cm2, 4 h
  % Mortality 4 h: 0%
[1]; Conc. 2 ug/cm2, 24 h
  % Mortality 24 h: 33%

## CC1(c2nn(-c3c(Cl)cc(Cl)cc3Cl)cc2C#N)CC1(Cl)Cl (stereo not shown) [Example 6]
[2]; Conc. 1.0 ppm, 24 h
  % Mortality 24 h: 10%
[2]; Conc. 1.0 ppm, 48 h
  % Mortality 48 h: 10%
[2]; Conc. 20.0 ppm, 24 h
  % Mortality 24 h: 70%
[2]; Conc. 20.0 ppm, 48 h
  % Mortality 48 h: 70%

## CC1C(Cl)(Cl)C1(C)c1nn(-c2c(Cl)cc(C(F)(F)F)cc2Cl)cc1C#N (stereo not shown) [Example 7]
[1]; Conc. 2 ug/cm2, 4 h
  % Mortality 4 h: 0%
[1]; Conc. 2 ug/cm2, 24 h
  % Mortality 24 h: 100%
[3]; Conc. 0.78 ug/cm2, 4 h
  % Mortality 4 h: 0%
[3]; Conc. 0.78 ug/cm2, 24 h
  % Mortality 24 h: 10%
[3]; Conc. 7.80 ug/cm2, 4 h
  % Mortality 4 h: 10%
[3]; Conc. 7.80 ug/cm2, 24 h
  % Mortality 24 h: 80%
[2]; Conc. 2.0 ppm, 24 h
  % Mortality 24 h: 0%
[2]; Conc. 2.0 ppm, 48 h
  % Mortality 48 h: 0%
[2]; Conc. 20.0 ppm, 24 h
  % Mortality 24 h: 77%
[2]; Conc. 20.0 ppm, 48 h
  % Mortality 48 h: 90%

## COc1ccc(C2(c3nn(-c4c(Cl)cc(C(F)(F)F)cc4Cl)cc3C#N)CC2)cc1 [Example 9]
[2]; Conc. 20.0 ppm, 24 h
  % Mortality 24 h: 0%
[2]; Conc. 20.0 ppm, 48 h
  % Mortality 48 h: 0%

## N#Cc1cn(-c2c(Cl)cc(C(F)(F)F)cc2Cl)nc1C1(c2ccc(Cl)cc2)CC1 [Example 10]
[2]; Conc. 20.0 ppm, 24 h
  % Mortality 24 h: 0%
[2]; Conc. 20.0 ppm, 48 h
  % Mortality 48 h: 0%

## CC1(c2nn(-c3c(Cl)cc(Cl)cc3Cl)cc2C#N)CC1 [Example 11]
[2]; Conc. 20.0 ppm, 24 h
  % Mortality 24 h: 0%
[2]; Conc. 20.0 ppm, 48 h
  % Mortality 48 h: 0%

## COc1ccc(C2(c3nn(-c4c(Cl)cc(Cl)cc4Cl)cc3C#N)CC2)cc1 [Example 13]
[2]; Conc. 20.0 ppm, 24 h
  % Mortality 24 h: 0%
[2]; Conc. 20.0 ppm, 48 h
  % Mortality 48 h: 0%

## CC1(c2nn(-c3c(Cl)cc(C(F)(F)F)cc3Cl)cc2C#N)CC1(Br)Br (stereo not shown) [Example 14]
[1]; Conc. 2 ug/cm2, 4 h
  % Mortality 4 h: 10%
[1]; Conc. 2 ug/cm2, 24 h
  % Mortality 24 h: 100%
[3]; Conc. 0.78 ug/cm2, 4 h
  % Mortality 4 h: 40%
[3]; Conc. 0.78 ug/cm2, 24 h
  % Mortality 24 h: 40%
[3]; Conc. 7.80 ug/cm2, 4 h
  % Mortality 4 h: 50%
[3]; Conc. 7.80 ug/cm2, 24 h
  % Mortality 24 h: 80%
[2]; Conc. 0.2 ppm, 24 h
  % Mortality 24 h: 50%
[2]; Conc. 0.2 ppm, 48 h
  % Mortality 48 h: 50%
[2]; Conc. 2.0 ppm, 24 h
  % Mortality 24 h: 100%
[2]; Conc. 2.0 ppm, 48 h
  % Mortality 48 h: 100%
[2]; Conc. 20.0 ppm, 24 h
  % Mortality 24 h: 95%
[2]; Conc. 20.0 ppm, 48 h
  % Mortality 48 h: 100%

## CC1(c2nn(-c3c(Cl)cc(Cl)cc3Cl)cc2C#N)CC1(Br)Br (stereo not shown) [Example 15]
[1]; Conc. 2 ug/cm2, 4 h
  % Mortality 4 h: 10%
[1]; Conc. 2 ug/cm2, 24 h
  % Mortality 24 h: 80%
[2]; Conc. 0.2 ppm, 24 h
  % Mortality 24 h: 0%
[2]; Conc. 0.2 ppm, 48 h
  % Mortality 48 h: 0%
[2]; Conc. 2.0 ppm, 24 h
  % Mortality 24 h: 95%
[2]; Conc. 2.0 ppm, 48 h
  % Mortality 48 h: 95%
[2]; Conc. 20.0 ppm, 24 h
  % Mortality 24 h: 90%
[2]; Conc. 20.0 ppm, 48 h
  % Mortality 48 h: 90%

## N#Cc1cn(-c2c(Cl)cc(C(F)(F)F)cc2Cl)nc1C1(c2ccc(Cl)cc2Cl)CC1 [Example 17]
[2]; Conc. 20.0 ppm, 24 h
  % Mortality 24 h: 0%
[2]; Conc. 20.0 ppm, 48 h
  % Mortality 48 h: 0%
